Usually EC50 stands for the concentration needed to bring the measured effect to its halfway point.

In one test the test system is mice treated with MPTP. As to conditions: cited from earlier work.
Test [1] concerns mice (model of anxiety). The conditions noted are these: reported by Addex 2010; cited from earlier work.
For another test, the system named is rats (model of anxiety). The conditions noted are these: cited from earlier work.
The subject of test [2] is mice (model of anxiety). The conditions noted are these: reported by Addex 2010; cited from earlier work. The source holds these as a separate data set.
A further test has as its target human mGlu4 receptor (Homo sapiens (Human), UniProt Q14833). Briefly: Ca2+ mobilization in vitro assay on recombinant human mGlu4 expressed in HEK293 cells (PAM). The test is classed as cell-based. As to conditions: for Emax: HEK293, maximal response in % of maximal stimulatory effect of saturating L-AP4, read-out: Eff. (%); for EC50: HEK293 cells, human mGlu4, in presence of EC20 of L-AP4, read-out: EC50 (nM) mGlu4PAM. In a few lines: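 HEK293 cells stably expressing human mGlu4 at low level, Fluo-4AM loaded; compound (11 half-log dilutions) pre-incubated 10–30 min at 37 °C, then L-AP4 added at EC20 (determined daily). Peak fluorescence minus basal, normalized to saturating L-AP4; EC50, Hill slope and % Emax from four-parameter fit.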
Background: Calcium flux is commonly read through the fluorescence of an indicator in the cells.

The test system of test [3] is 6-OHDA rodent model of PD. As to conditions: cited from earlier work.

human mGlu4 receptor, sequence (Q14833 33-912): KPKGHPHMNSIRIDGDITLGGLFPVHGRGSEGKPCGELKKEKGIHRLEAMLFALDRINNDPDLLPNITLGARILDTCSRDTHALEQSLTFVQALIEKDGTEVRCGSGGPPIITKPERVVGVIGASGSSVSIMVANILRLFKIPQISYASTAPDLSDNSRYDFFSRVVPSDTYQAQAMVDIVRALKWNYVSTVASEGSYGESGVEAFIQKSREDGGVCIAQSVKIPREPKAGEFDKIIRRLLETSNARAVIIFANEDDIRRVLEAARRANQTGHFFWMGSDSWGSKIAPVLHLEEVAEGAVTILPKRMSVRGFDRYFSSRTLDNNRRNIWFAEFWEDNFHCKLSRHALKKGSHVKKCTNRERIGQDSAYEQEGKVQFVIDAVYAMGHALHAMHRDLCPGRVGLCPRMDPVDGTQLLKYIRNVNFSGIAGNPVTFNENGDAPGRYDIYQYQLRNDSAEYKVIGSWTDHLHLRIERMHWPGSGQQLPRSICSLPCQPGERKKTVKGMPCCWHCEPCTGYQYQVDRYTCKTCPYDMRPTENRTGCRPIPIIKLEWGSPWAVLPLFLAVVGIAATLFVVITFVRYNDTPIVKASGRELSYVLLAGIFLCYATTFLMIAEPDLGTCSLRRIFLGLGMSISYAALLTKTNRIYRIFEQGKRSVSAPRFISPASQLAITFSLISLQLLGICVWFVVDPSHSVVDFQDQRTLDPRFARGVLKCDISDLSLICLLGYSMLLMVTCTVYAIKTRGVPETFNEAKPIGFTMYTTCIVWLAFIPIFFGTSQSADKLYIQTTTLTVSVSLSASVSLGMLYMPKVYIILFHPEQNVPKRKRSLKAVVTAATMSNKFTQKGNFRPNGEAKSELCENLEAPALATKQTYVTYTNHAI

In the case of `O=C(Nc1ccccc1)C12CC1/C(=N\O)c1ccccc1O2` (single isomer, unassigned; (-)) [(−)-PHCCC], the nigrostriatal degeneration entry in the test on mice treated with MPTP is given as “reduced nigrostriatal degeneration”.

Turning to `Cc1ccnc(Nc2nc(-c3cn[nH]c3)c(C)s2)n1` [ADX88178], the “activity in EPM” value with mice (model of anxiety) [1] is recorded as “active”; in the test with rats (model of anxiety) (rats, reported by Addex 2010), “active”. The “profile in rat EPM test” value with rats (model of anxiety) (rat, after oral dosing) is given as “anxiolytic-like profile”. In the test with mice (model of anxiety) [2], the “activity in marble burying test” value is reported as “active”.

In the case of `C[C@@]12CC(=O)N(c3c(F)cc(C#Cc4ccccc4)cc3F)C(=O)N1CCN(Cc1ccccc1F)C2=O` [Example 89, (9aS)-7-[2,6-difluoro-4-(2-phenylethynyl)phenyl]-2-[(2-fluorophenyl)methyl]-9a-methyl-4,9-dihydro-3H-pyrazino[1,2-c]pyrimidine-1,6,8-trione], on human mGlu4 receptor, the Emax was 98% and the EC50 was found to be 149 nM.

Turning to `C[C@@]12CC(=O)N(c3c(F)cc(C#Cc4ccccc4)cc3F)C(=O)N1CCN(Cc1cccc(F)c1)C2=O` [Example 90, (9aS)-7-[2,6-difluoro-4-(2-phenylethynyl)phenyl]-2-[(3-fluorophenyl)methyl]-9a-methyl-4,9-dihydro-3H-pyrazino[1,2-c]pyrimidine-1,6,8-trione], at human mGlu4 receptor, the Emax turned out to be 109% and the EC50 came to 187 nM.

Consider `C[C@@]12CC(=O)N(c3c(F)cc(C#Cc4ccccc4)cc3F)C(=O)N1CCN(Cc1ccc(F)cc1)C2=O` [Example 91, (9aS)-7-[2,6-difluoro-4-(2-phenylethynyl)phenyl]-2-[(4-fluorophenyl)methyl]-9a-methyl-4,9-dihydro-3H-pyrazino[1,2-c]pyrimidine-1,6,8-trione], for which, at human mGlu4 receptor, the Emax is 101% and the EC50 is 147 nM.

With `Cn1nccc1CN1CCN2C(=O)N(c3c(F)cc(C#Cc4ccccc4)cc3F)C(=O)C[C@@]2(C)C1=O` [Example 97, (9aS)-7-[2,6-difluoro-4-(2-phenylethynyl)phenyl]-9a-methyl-2-[(2-methylpyrazol-3-yl)methyl]-4,9-dihydro-3H-pyrazino[1,2-c]pyrimidine-1,6,8-trione], at human mGlu4 receptor, the Emax is 128% and the EC50 was 76 nM.

On to `C[C@@]12CC(=O)N(c3c(F)cc(C#Cc4ccccc4)cc3F)C(=O)N1CCN(CCn1ccnc1)C2=O` [Example 98, (9aS)-7-[2,6-difluoro-4-(2-phenylethynyl)phenyl]-2-(2-imidazol-1-ylethyl)-9a-methyl-4,9-dihydro-3H-pyrazino[1,2-c]pyrimidine-1,6,8-trione], for which, at human mGlu4 receptor, the Emax worked out at 135% and the concentration giving a half-maximal response (EC50) amounted to 283 nM.

For the compound `Cc1nccn1CCN1CCN2C(=O)N(c3c(F)cc(C#Cc4ccccc4)cc3F)C(=O)C[C@@]2(C)C1=O` [Example 99, (9aS)-7-[2,6-difluoro-4-(2-phenylethynyl)phenyl]-9a-methyl-2-[2-(2-methylimidazol-1-yl)ethyl]-4,9-dihydro-3H-pyrazino[1,2-c]pyrimidine-1,6,8-trione], on human mGlu4 receptor, the Emax was 146% and the EC50 came out at 282 nM.

For the compound `Cn1nccc1CCN1CCN2C(=O)N(c3c(F)cc(C#Cc4ccccc4)cc3F)C(=O)C[C@@]2(C)C1=O` [Example 100, (9aS)-7-[2,6-difluoro-4-(2-phenylethynyl)phenyl]-9a-methyl-2-[2-(2-methylpyrazol-3-yl)ethyl]-4,9-dihydro-3H-pyrazino[1,2-c]pyrimidine-1,6,8-trione], at human mGlu4 receptor, the Emax is 123% and the EC50 is 219 nM.

For `Cn1cc(CCN2CCN3C(=O)N(c4c(F)cc(C#Cc5ccccc5)cc4F)C(=O)C[C@@]3(C)C2=O)cn1` [Example 101, (9aS)-7-[2,6-difluoro-4-(2-phenylethynyl)phenyl]-9a-methyl-2-[2-(1-methylpyrazol-4-yl)ethyl]-4,9-dihydro-3H-pyrazino[1,2-c]pyrimidine-1,6,8-trione], on human mGlu4 receptor, the Emax is 129% and the EC50 worked out at 125 nM.

In the case of `COC[C@@]12CC(=O)N(c3c(F)cc(C#Cc4ccccc4)cc3F)C(=O)N1CCN(c1cccnc1)C2=O` [Example 103, (9aR)-7-[2,6-difluoro-4-(2-phenylethynyl)phenyl]-9a-(methoxymethyl)-2-(3-pyridyl)-4,9-dihydro-3H-pyrazino[1,2-c]pyrimidine-1,6,8-trione], at human mGlu4 receptor, the Emax is 118% and the EC50 was 169 nM.

With `COC[C@@]12CC(=O)N(c3c(F)cc(C#Cc4ccccc4)cc3F)C(=O)N1CCN(c1cnn(C)c1)C2=O` [Example 105, (9aR)-7-[2,6-difluoro-4-(2-phenylethynyl)phenyl]-9a-(methoxymethyl)-2-(1-methylpyrazol-4-yl)-4,9-dihydro-3H-pyrazino[1,2-c]pyrimidine-1,6,8-trione], at human mGlu4 receptor, the Emax came out at 144% and the EC50 turned out to be 61 nM.

Take `CC[C@@]12CC(=O)N(c3c(F)cc(C#Cc4ccccc4)cc3F)C(=O)N1CCN(c1cccnc1)C2=O` [Example 106, (9aS)-7-[2,6-difluoro-4-(2-phenylethynyl)phenyl]-9a-ethyl-2-(3-pyridyl)-4,9-dihydro-3H-pyrazino[1,2-c]pyrimidine-1,6,8-trione]: on human mGlu4 receptor, the Emax is 112% and the EC50 came out at 95 nM.

With `CC[C@@]12CC(=O)N(c3c(F)cc(C#Cc4ccccc4)cc3F)C(=O)N1CCN(c1cnn(C)c1)C2=O` [Example 107, (9aS)-7-[2,6-difluoro-4-(2-phenylethynyl)phenyl]-9a-ethyl-2-(1-methylpyrazol-4-yl)-4,9-dihydro-3H-pyrazino[1,2-c]pyrimidine-1,6,8-trione], on human mGlu4 receptor, the Emax worked out at 125% and the EC50 turned out to be 104 nM.

For the compound `C[C@@]12CC(=O)N(c3c(F)cc(C#Cc4ccccc4F)cc3F)C(=O)N1CCN(c1cccnc1)C2=O` [Example 109, (9aS)-7-[2,6-difluoro-4-[2-(2-fluorophenyl)ethynyl]phenyl]-9a-methyl-2-(3-pyridyl)-4,9-dihydro-3H-pyrazino[1,2-c]pyrimidine-1,6,8-trione], on human mGlu4 receptor, the Emax worked out at 85% and the EC50 is 56 nM.

On to `C[C@@]12CC(=O)N(c3c(F)cc(C#Cc4ccccc4F)cc3F)C(=O)N1CCN(c1ccncn1)C2=O` [Example 110, (9aS)-7-[2,6-difluoro-4-[2-(2-fluorophenyl)ethynyl]phenyl]-9a-methyl-2-pyrimidin-4-yl-4,9-dihydro-3H-pyrazino[1,2-c]pyrimidine-1,6,8-trione], for which, on human mGlu4 receptor, the Emax was 90% and the EC50 came out at 31 nM.

As to `Cn1cc(N2CCN3C(=O)N(c4c(F)cc(C#Cc5ccccc5F)cc4F)C(=O)C[C@@]3(C)C2=O)cn1` [Example 111, (9aS)-7-[2,6-difluoro-4-[2-(2-fluorophenyl)ethynyl]phenyl]-9a-methyl-2-(1-methylpyrazol-4-yl)-4,9-dihydro-3H-pyrazino[1,2-c]pyrimidine-1,6,8-trione], at human mGlu4 receptor, the Emax came to 120% and the EC50 stood at 56 nM.

For `N[C@@H](CCP(=O)(O)O)C(=O)O` [L-AP4, (2S)-2-amino-4-phosphonobutanoic acid], the neuroprotection entry in test [3] is listed as “neuroprotective effects”.
